Measured values published in patent US9302999B2, “Substituted triazoles as herbicides” (E. I. DU PONT DE NEMOURS AND COMPANY, priority 2012, dated 2016).

Columns and labels:
Type in all cases: in vivo
[1] = tested on: radish, wild (wild radish, Raphanus raphanistrum); experiment: Test D pre-/postemergence: radish, wild
Excerpt: Seeds of plant species selected from bluegrass (annual bluegrass, Poa annua), blackgrass (Alopecurus myosuroides), canarygrass (Phalaris minor), chickweed (common chickweed, Stellaria media), galium (catchweed bedstraw, Galium aparine), bromegrass, downy (downy bromegrass, Bromus tectorum), field poppy (Papaver rhoeas), field violet (Viola arvensis), foxtail, green (green foxtail, Setaria viridis), deadnettle (henbit deadnettle, Lamium amplexicaule), ryegrass, Italian (Italian ryegrass, Lolium multiflorum), kochia (Kochia scoparia), lambsquarters (Chenopodium album), oilseed rape (Brassica napus), pigweed (Amaranthus retroflexus), Russian thistle (Salsola iberica), chamomile (scentless chamomile, Matricaria inodora), speedwell (bird's-eye speedwell, Veronica persica), barley, spring (spring barley, Hordeum vulgare), wheat, spring (spring wheat, Triticum aestivum), buckwheat, wild (wild buckwheat, Polygonum convolvulus), mustard, wild (wild mustard, Sinapis arvensis), oat, wild (wild oat, Avena fatua), radish, wild (wild radish, Raphanus raphanistrum), windgrass (Apera spica-venti), barley, winter (winter barley, Hordeum vulgare), and wheat, winter (winter wheat, Triticum aestivum) were planted into a silt loam soil and treated preemergence with test chemicals formulated in a non-phytotoxic solvent mixture which included a surfactant. At the same time, these same crop and weed species were planted in pots containing the planting medium comprising spaghnum peat moss, vermiculite, wetting agent and starter nutrients and treated with postemergence applications of the test chemicals formulated in the same manner. Plants ranged in height from 2 to 18 cm (1- to 4-leaf stage).
Treated plants and controls were maintained in a controlled growth environment for 14 to 21 days after which time all species were compared to controls and visually evaluated. Plant response ratings, summarized in Table D, are based on a scale of 0 to 100 where 0 is no effect and 100 is complete control. A dash (-) response means no test result.

[2] = tested on: sandbur (southern sandbur, Cenchrus echinatus); experiment: Test E pre-/postemergence: sandbur; conditions: scale 0 to 100
Excerpt: Seeds of plant species selected from corn (Zea mays), soybean (Glycine max), velvetleaf (Abutilon theophrasti), lambsquarters (Chenopodium album), poinsettia, wild (wild poinsettia, Euphorbia heterophylla), pigweed, palmer (palmer pigweed, Amaranthus palmeri), waterhemp (common waterhemp, Amaranthus rudis), smartweed (ladysthumb smartweed, Polygonum persicaria), surinam grass (Brachiaria decumbens), crabgrass, large (large crabgrass, Digitaria sanguinalis), crabgrass, Brazil (Brazilian crabgrass, Digitaria horizontalis), panicum, fall (fall panicum, Panicum dichotomiflorum), foxtail, giant (giant foxtail, Setaria faberii), foxtail, green (green foxtail, Setaria viridis), goosegrass (Eleusine indica), johnsongrass (Sorghum halepense), ragweed (common ragweed, Ambrosia elation), barnyardgrass (Echinochloa crus-galli), sandbur (southern sandbur, Cenchrus echinatus), arrowleaf sida (Sida rhombifolia), ryegrass, Italian (Italian ryegrass, Lolium multiflorum), dayflower, (VA) (Virginia dayflower, Commelina virginica), field bindweed (Convolvulus arvensis), cocklebur (common cocklebur, Xanthium strumarium), morningglory (Ipomoea coccinea), nightshade (eastern black nightshade, Solanum ptycanthum), kochia (Kochia scoparia), nutsedge, yellow (yellow nutsedge, Cyperus esculentus) and beggarticks (hairy beggarticks, Bidens pilosa) were planted into a silt loam soil and treated preemergence with test chemicals formulated in a non-phytotoxic solvent mixture which included a surfactant. At the same time, plants selected from these crop and weed species were planted in pots containing a growing medium comprising spaghnum peat moss, vermiculite, wetting agent and starter nutrients and treated with postemergence applications of some of the test chemicals formulated in the same manner. Plants ranged in height from 2 to 18 cm for postemergence treatments (1- to 4-leaf stage).
(§1) Treated plants and controls were maintained in a greenhouse for 14 to 21 days, after which time all species were compared to controls and visually evaluated. Plant response ratings, summarized in Table E, are based on a scale of 0 to 100 where 0 is no effect and 100 is complete control. A dash (-) response means no test result.

[3] = tested on: foxtail, giant (giant foxtail, Setaria faberii); experiment: Test F pre-/postemergence: foxtail, giant; conditions: Preemergence
Excerpt: Seeds of plant species selected from corn (Zea mays), soybean (Glycine max), velvetleaf (Abutilon theophrasti), lambsquarters (Chenopodium album), poinsettia, wild (wild poinsettia, Euphorbia heterophylla), pigweed, palmer (palmer pigweed, Amaranthus palmeri), waterhemp (common waterhemp, Amaranthus rudis), surinam grass (Brachiaria decumbens), crabgrass, Brazil (Brazilian crabgrass, Digitaria horizontalis), panicum, fall (fall panicum Panicum dichotomiflorum), crabgrass, large (large crabgrass, Digitaria sanguinalis), foxtail, giant (giant foxtail, Setaria faberii), foxtail, green (green foxtail Setaria viridis), goosegrass (Eleusine indica), ragweed (common ragweed, Ambrosia elatior), barnyardgrass (Echinochloa crus-galli), sandbur (southern sandbur, Cenchrus echinatus), arrowleaf sida (Sida rhombifolia), ryegrass, Italian (Italian ryegrass, Lolium multiflorum), dayflower, VA (Virginia (VA) dayflower, Commelina virginica), field bindweed (Convolvulus arvensis), cocklebur (common cocklebur, Xanthium strumarium), morningglory (Ipomoea coccinea), nightshade (eastern black nightshade, Solanum ptycanthum), kochia (Kochia scoparia), nutsedge, yellow (yellow nutsedge, Cyperus esculentus), johnsongrass (Sorghum halepense), smartweed (ladysthumb smartweed, Polygonum persicaria), and beggarticks (hairy beggarticks, Bidens pilosa), were planted into a silt loam soil and treated preemergence with test chemicals formulated in a non-phytotoxic solvent mixture which included a surfactant. At the same time, plants selected from these crop and weed species and also pigweed (Amaranthus retroflexus), waterhemp_RES1 (ALS/Triazine resistant common waterhemp, Amaranthus rudis) and waterhemp_RES2 (ALS/HPPD resistant common waterhemp, Amaranthus rudis) were planted in pots containing a planting medium comprising spaghnum peat moss, vermiculite, wetting agent and starter nutrients treated with postemergence applications of some of the test chemicals formulated in the same manner. Plants ranged in height from 2 to 18 cm for postemergence treatments (1- to 4-leaf stage).
as §1

[4] = Postemergence, 31 g ai/ha, scale 0 to 100 (0 no effect, 100 complete control)
[5] = Postemergence, 62 g ai/ha, scale 0 to 100 (0 no effect, 100 complete control)
[6] = Postemergence, 125 g ai/ha, scale 0 to 100, 0 no effect, 100 complete control
[7] = Postemergence, 250 g ai/ha, scale 0 to 100 (0 no effect, 100 complete control)
[8] = Postemergence, 16 g ai/ha, scale 0 to 100
[9] = Preemergence, 31 g ai/ha, scale 0 to 100 (0 no effect, 100 complete control)
[10] = Preemergence, 62 g ai/ha, scale 0 to 100
[11] = Preemergence, 125 g ai/ha, scale 0 to 100
[12] = 16 g ai/ha, scale 0 to 100 (0 no effect, 100 complete control)
[13] = 31 g ai/ha, scale 0 to 100 (0 no effect, 100 complete control)

| SMILES | Plant response rating: Radish, Wild [1, 4] | Plant response rating: Radish, Wild [1, 5] | Plant response rating: Radish, Wild [1, 6] | Plant response rating: Radish, Wild [1, 7] | Plant response rating, Radish, Wild [1, 8] | Plant response rating: Sandbur ([2]; Preemergence, 16 g ai/ha) | Plant response rating: Sandbur ([2]; Preemergence, 31 g ai/ha) | Plant response rating: Sandbur ([2]; Preemergence, 62 g ai/ha) | Plant response rating, Foxtail, Giant [3, 12] | Plant response rating, Foxtail, Giant [3, 13] | Plant response rating, Foxtail, Giant ([3]; 62 g ai/ha, scale 0 to 100) | other results |
| --- | --- | --- | --- | --- | --- | --- | --- | --- | --- | --- | --- | --- |
| Cc1nn(-c2ccc(F)cc2)nc1Cc1ccnc(C(F)(F)F)c1 [Compound 16, 4-[[2-(4-fluorophenyl)-5-methyl-2H-1,2,3-triazol-4-yl]methyl]-2-(trifluoromethyl)pyridine] | 100 | 100 | 100 | 100 | 90 | 0 | 10 | 50 |  |  |  | Plant response rating: Sandbur ([2]; Preemergence, 8 g ai/ha): 0; Plant response rating: Sandbur ([2]; Preemergence, 125 g ai/ha): 60 |
| Cc1nn(-c2ccc(C(F)(F)F)cc2)nc1Cc1ccnc(C(F)(F)F)c1 [Compound 47, 4-[[5-methyl-2-[4-(trifluoromethyl)phenyl]-2H-1,2,3-triazol-4-yl]methyl]-2-(trifluoromethyl)pyridine] |  |  |  |  |  | 0 | 20 | 90 |  |  |  | Plant response rating: Sandbur ([2]; Postemergence, 250 g ai/ha): 50; Plant response rating: Sandbur ([2]; Postemergence, 16 g ai/ha): 20; Plant response rating: Sandbur ([2]; Postemergence, 31 g ai/ha): 25; Plant response rating: Sandbur ([2]; Postemergence, 62 g ai/ha): 25; Plant response rating: Sandbur ([2]; Postemergence, 125 g ai/ha): 30; Plant response rating: Sandbur ([2]; Preemergence, 250 g ai/ha): 100 |
| Cc1nn(-c2ccc(F)cc2)nc1Oc1ccnc(C(F)(F)F)c1 [Compound 129, 4-[[2-(4-fluorophenyl)-5-methyl-2H-1,2,3-triazol-4-yl]oxy]-2-(trifluoromethyl)pyridine] | 90 | 100 | 100 | 100 | 90 | 0 | 20 | 20 |  |  |  | Plant response rating, Radish, Wild ([1]; Preemergence, 16 g ai/ha, scale 0 to 100 (0 no effect, 100 complete control)): 0; Plant response rating, Radish, Wild [1, 9]: 0; Plant response rating, Radish, Wild [1, 10]: 10; Plant response rating, Radish, Wild [1, 11]: 100; Plant response rating, Radish, Wild ([1]; Preemergence, 250 g ai/ha, scale 0 to 100): 100; Plant response rating: Sandbur ([2]; Preemergence, 8 g ai/ha): 0; Plant response rating: Sandbur ([2]; Preemergence, 125 g ai/ha): 50 |
| Cc1nn(-c2ccnc(C(F)(F)F)c2)nc1Cc1ccnc(C(F)(F)F)c1 [Compound 137] | 40 | 90 | 100 | 100 | 40 |  |  |  |  |  |  |  |
| Fc1ccc(-n2nc(Cc3ccnc(C(F)(F)F)c3)c(OCC(F)(F)F)n2)cc1 [Compound 142] |  |  |  |  |  |  |  |  | 35 | 75 | 100 | Plant response rating, Foxtail, Giant ([3]; 125 g ai/ha, scale 0 to 100): 100 |
| Cc1nn(-c2ccc(F)c(C(F)(F)F)c2)nc1Oc1ccnc(C(F)(F)F)c1 [Compound 147] | 100 | 95 | 100 |  | 85 |  |  |  |  |  |  | Plant response rating, Radish, Wild [1, 9]: 10; Plant response rating, Radish, Wild [1, 10]: 100; Plant response rating, Radish, Wild [1, 11]: 100 |
| CCCc1nn(-c2ccc(F)cc2)nc1Cc1ccnc(C(F)(F)F)c1 [Compound 153] |  |  |  |  |  |  |  |  | 40 | 85 | 100 | Plant response rating, Foxtail, Giant ([3]; 125 g ai/ha, scale 0 to 100): 100; Plant response rating, Foxtail, Giant ([3]; 250 g ai/ha, scale 0 to 100): 100 |
| Cc1nn(-c2ccc(C(F)(F)F)c(F)c2)nc1Cc1ccnc(C(F)(F)F)c1 [Compound 162] |  |  |  |  |  |  |  |  | 70 | 100 | 100 | Plant response rating, Foxtail, Giant ([3]; 4 g ai/ha, scale 0 to 100, 0 no effect, 100 complete control): 0; Plant response rating, Foxtail, Giant ([3]; 8 g ai/ha, scale 0 to 100, 0 no effect, 100 complete control): 20 |
